According to US20240300886A1, “ARYLCYCLOHEXYLAMINE DERIVATIVES AND THEIR USE IN THE TREATMENT OF PSYCHIATRIC DISORDERS” (GILGAMESH PHARMACEUTICALS, INC., priority 2021, published 2024):

Assays:
[1] = Metabolic stability in human liver microsomes (HLM); format: in vitro ADME; conditions: 0.50 mg protein/mL, NADPH; for Clint: 1 μM compound; for half-life at 1 μM: both sexes, human, pooled human liver microsomes, pH 7.4, 1 μM compound
Protocol: (§1) HLM Stability. Pooled HLM from adult male and female donors (Corning 452117) were used. Microsomal incubations were carried out in multi-well plates. Liver microsomal incubation medium consisted of PBS (100 mM, pH 7.4), MgCl2 (1 mM), and NADPH (1 nmM), with 0.50 mg of liver microsomal protein per mL. Control incubations were performed by replacing the NADPH-cofactor system with PBS. Test compounds (1 μM, final solvent concentration 1.0%) were incubated with microsomes at 37° C. with constant shaking, Six time points over 60 minutes were analyzed, with 60 μL aliquots of the reaction mixture being drawn at each time point. The reaction aliquots were stopped by adding 180 μL of cold (4° C.) acetonitrile containing 200 ng/mL tolbutamide and 200 ng/mL labetalol as internal standards (IS), followed by shaking for 10 minutes, and then protein sedimentation by centrifugation at 4,000 rpm for 20 minutes at 4° C. Supernatant samples (80 μL) were diluted with water (240 μL) and analyzed for parent compound remaining using a fit-for-purpose liquid chromatography-tandem mass spectrometry (LC-MS/MS) method.
(§2) Data Analysis. The elimination constant (kel), half-life (t1/2) and intrinsic clearance (Clint) were determined in a plot of […] versus time, using linear regression analysis.

[2] = Metabolic stability in mouse liver microsomes (MLM); format: in vitro ADME, CD-1 mice; conditions: male, CD-1, mouse, pooled mouse liver microsomes, pH 7.4, 1 μM compound, 0.50 mg protein/mL, NADPH
Protocol: as §1, with “MLM” for “HLM”, “from” for “from adult”, “CD-1 mice (XenoTech M1000)” for “and female donors (Corning 452117)”, “mM),” for “nmM),”, “shaking.” for “shaking,”
Data Analysis. The elimination constant (kel), half-life (t1/2) and intrinsic clearance (Clint) were determined in a plot of ln(AUC) versus […], using linear regression analysis.

[3] = Metabolic stability in rat liver microsomes (RLM); format: in vitro ADME, Sprague Dawley rats; conditions: male, Sprague Dawley, rat, pooled rat liver microsomes, pH 7.4, 1 μM compound, 0.50 mg protein/mL, NADPH
Protocol: as §1, with “RLM” for “HLM”, “from” for “from adult”, “Sprague Dawley rats (XenoTech R1000)” for “and female donors (Corning 452117)”, “mM),” for “nmM),”, “shaking.” for “shaking,”
as §2

[4] = target: serotonin transporter (SERT) (Homo sapiens (Human), UniProt P31645); experiment: SERT fluorescent substrate uptake inhibition in transfected cells; format: cell-based; conditions: for inhibition at 10 µM: stably transfected cells expressing SERT; for ability to inhibit SERT uptake (in words): transfected cells, 10 μM
Protocol: The ability of disclosed compounds to inhibit uptake of monoamines by the serotonin transporter (SERT) was measured using a fluorescent substrate uptake assay in transfected cells (Table 15). […] Considering that inhibitors of SERT are well known to have antidepressant and anxiolytic effects and are among the most commonly prescribed drugs for mood disorders (e.g. fluoxetine, sertraline, etc.), blockade of SERT by certain compounds of the present disclosure is expected to synergize with their NMDAR inhibition to increase therapeutic activity for treating depression and related disorders. […] Further, the ability to tune the ratio between SERT and NMDAR is useful to obtain the optimal therapeutic profile depending on the intended clinical indication.
Uptake Inhibition. The ability of test compounds to block monoamine uptake by SERT was determined using the Neurotransmitter Transporter Uptake Assay Kit manufactured by Molecular Devices (Cat #R8173). Briefly, stably transfected cells expressing SERT were grown and plated into 384-well plates at a concentration of 20,000 cells per well. Plates were then incubated for 16-20 h at 37° C. and 5% CO2. The medium was then aspirated and replaced with 25 μL of assay buffer (20 mM HEPES in HBSS, containing 0.1% BSA) containing the test compounds at the appropriate concentrations. Plates were then centrifuged at 300 rpm for 15 s and then incubated at 37° C. for 30 minutes. At this time, 25 μL of the proprietary fluorescent dye solution was added, the plates were incubated at 37° C. for 60 minutes, and then fluorescence was quantified on a plate reader (excitation wavelength=440 nm, emission wavelength=520 nm). The proprietary dye solution contains a mixture of 1) a fluorescent dye that mimics the endogenous substrate of SERT and is thereby actively transported to the intracellular compartment in the absence of an inhibitor and 2) a masking dye that inhibits the fluorescence of dye 1 in the extracellular compartment. Therefore, the overall fluorescence of the system increases as the fluorescent dye is transported into the cells.

Row | Compound | Clint [1] | half-life at 1 μM [1] | half-life at 1 μM [2] | microsomal CLint at 1 μM [2] | half-life at 1 μM [3] | microsomal CLint at 1 μM [3] | inhibition at 10 µM [4] | ability to inhibit SERT uptake (in words) [4]
1 | CNC1(c2ccccc2Cl)CCCCC1=O (racemic) [racemic ketamine, ketamine] | 25.5 μL/min/m | 0.907 h | 0.257 h | 90.1 µL/min/mg | 0.0933 h | 294 µL/min/mg | – | –
2 | N[C@@]1(c2ccc(F)cc2)CCCCC1=O [Compound 1R, (R)-2-amino-2-(4-fluorophenyl)cyclohexan-1-one] | <9.6 μL/min/m | > 2.42 h | > 2.42 h | < 9.6 µL/min/mg | > 2.42 h | < 9.6 µL/min/mg | 10.4% | –
3 | N[C@]1(c2ccc(F)cc2)CCCCC1=O [Compound 1S, (S)-2-amino-2-(4-fluorophenyl)cyclohexan-1-one] | <9.6 μL/min/m | > 2.42 h | > 2.42 h | < 9.6 µL/min/mg | > 2.42 h | < 9.6 µL/min/mg | 14.9% | –
4 | CN[C@@]1(c2ccc(F)cc2)CCCCC1=O [Compound 2R, (R)-2-(4-fluorophenyl)-2(methylamino)cyclohexan-1-one] | <9.6 μL/min/m | > 2.42 h | 2.12 h | 10.9 µL/min/mg | 1.3 h | 17.8 µL/min/mg | 58.8% | substantial inhibitor, activity in the micromolar range
5 | CN[C@]1(c2ccc(F)cc2)CCCCC1=O [Compound 2S, (S)-2-(4-fluorophenyl)-2-(methylamino)cyclohexan-1-one] | <9.6 μL/min/m | > 2.42 h | 1.79 h | 12.9 µL/min/mg | 1.01 h | 22.8 µL/min/mg | 36.4% | –
6 | N[C@]1(c2cccc(F)c2)CCCCC1=O [Compound 3S] | <9.6 μL/min/m | > 2.42 h | 2.05 h | 11.3 µL/min/mg | 1.58 h | 14.6 µL/min/mg | -0.21% | inactive
